{
  "source": "patent US9814761B2",
  "about": "“Compositions, methods and assays comprising amylin or amlyin analogs for abeta-peptide mediated disorders” (TRUSTEES OF BOSTON UNIVERSITY, priority 2012, dated 2017)",
  "key": {"mouse models": {"system": "mouse models", "assay": "daily dosing in mouse models, memory functions", "type": "in vivo, mice"}, "[1]": {"details": "Banks and Kastin, 1998; cited from earlier work"}, "serum Aβ1-40 and Aβ1-42 [2]": {"system": "serum Aβ1-40 and Aβ1-42", "assay": "amylin challenge test, serum Aβ, 5XFAD mice", "type": "in vivo", "text": "The higher the levels of Aβ and the number of amyloid plaques in the brain, the higher fold of serum Aβ was increased after the peripheral amylin challenge."}, "[3]": {"system": "Aβ monomers and Aβ oligomers in the brain", "assay": "Aβ in the brain after amylin treatment, western blots and ELISA assays", "type": "in vivo", "details": "5XFAD mice; amylin treatment compared to saline", "text": "Changes of Aβ in the brain were examined after the amylin treatment in 5XFAD mice using both western blots and ELISA assays. […] Thus, without wishing to be bound or limited by theory, the benefits of memory improvement from amylin treatment is mediated, in part, by 1) removing Aβ from the AD brain into blood and 2) reducing the amount of Aβ oligomers in the brain."}, "5XFAD mice [4]": {"system": "5XFAD mice", "assay": "Y Maze Spontaneous Alternation test after long-term amylin treatment", "type": "in vivo", "details": "5XFAD mice aged 2 months; amylin 20 mcg/kg i.p. daily for 10 weeks vs. saline; n=8", "description": "Since amylin can enhance the removal of Aβ out of the brain into blood, it was tested whether amylin and its analogs can be a treatment for AD. Thus, we treated 5XFAD mice aged 2 months old with i.p injection of amylin (20 mcg/kg) vs. saline (n=8 in each group) daily for 10 weeks, and then conducted Y Maze Spontaneous Alternation test for measuring the willingness of mice to explore new environments."}, "[5]": {"system": "Aβ1-40 and Aβ1-42 in blood", "assay": "amylin challenge test, blood Aβ, APP Dutch mutation mouse line", "type": "in vivo, APP mouse line which carries the APP Dutch mutation"}, "serum Aβ1-40 and Aβ1-42 [6]": {"system": "serum Aβ1-40 and Aβ1-42", "assay": "amylin challenge test: i.p. injection, serum Aβ1-40 and Aβ1-42 by ELISA, control (wild type) mice", "type": "in vivo", "description": "(§1) TgAPP2576 mice (n=5) and control mice (n=5) were used. Intraperitoneal injection of amylin (20 mg/kg) was performed, and blood was drawn and collected at pre-injection, after injection at 5 minutes, 1 hr and 24 hrs. Serum Aβ1-40 and Aβ1-42 were measured using ELISA assay. The results of serum Aβ1-40 and Aβ1-42 for each individual mouse are shown. This experiment has been repeated twice for each mouse and similar results were obtained.\n(§2) As shown at FIGS. 3A-3E, amylin injection removes Aβ from the brain into blood in APP transgenic mice. Both the Tg2576 and wild type (WT) mice were used for the amylin challenge test. FIGS. 3A-3B. Amylin (20 mg/kg) was intraperitoneally injected (i.p), and blood was drawn and collected at the time points of pre-injection (the control n=7; Tg2576 n=11), after injection 5 minutes (the control n=7; Tg2576 n=6), 1 hr (the control n=7; Tg2576 n=10) and 24 hrs (the control n=7; Tg2576 n=11). Serum Aβ1-40 and Aβ1-42 were measured by using the ELISA assays. FIGS. 3C-3E. The levels of serum Aβ1-40 and Aβ1-42 at pre-injection of amylin were treated as 1 s, and the relative fold increase after amylin injection at each time point was shown and compared with the pre-injection level by using two-way ANOVA. ***p<0.01; **p<0.05 and *p<0.10.\n(§3) FIGS. 6A-6D depict amylin injection and serum Aβ in mice. Both control mice (wild type) and Tg2576 mice were used for the amylin injection test. Amylin (20 mcg/kg) was intraperitoneally injected (i.p), and blood was drawn at the following time points: at baseline or pre-injection (controls n=7; Tg2576 n=11), at 5 minutes (controls n=7; Tg2576 n=6), at 1 hr (controls n=7; Tg2576 n=10) and at 24 hrs (controls n=7; Tg2576 n=11) post injection. Serum Aβ1-40 and Aβ1-42 were measured by using the ELISA assays. The levels of serum Aβ1-40 and Aβ1-42 at pre-injection of amylin were treated as 1 s, and the relative fold increase after amylin injection at each time point was shown and compared with the pre-injection level by using a two-way ANOVA. ***p<0.01; **p<0.05 and *p<0.10.\nFIG. 7 depicts results of i.p injection of pramlintide, an analog of amylin, into one Tg2576 mouse (A1) and two wild type mice (N1 and N2) and comparison of their serum Aβ40 level before and after the injection.\n(§4) Validation: We used the APP transgenic mice (Tg2576) to conduct amylin challenge test. Tg2576 mice have Aβ deposits in the brain like the AD pathology. After intraperitoneal injection of amylin (20 mg/kg), Tg2576 mice (n=5) presented with the increase of serum Aβ40 and Aβ42 at 5 minutes, 1 hr and 24 hrs compared to the pre-injection levels of serum Aβ40 and Aβ42."}, "serum Aβ1-40 and Aβ1-42 [7]": {"system": "serum Aβ1-40 and Aβ1-42", "assay": "amylin challenge test: i.p. injection, serum Aβ1-40 and Aβ1-42 by ELISA, Tg2576 mice", "type": "in vivo", "details": "5 minutes", "description": "as §1, §2, §3, §4"}, "5XFAD mice [8]": {"system": "5XFAD mice", "assay": "Y-water Maze test after long-term amylin treatment", "type": "in vivo", "description": "5XFAD mice were treated with either i.p amylin or saline for 8 weeks followed by Y-water maze test. The average latency of recognizing the object after the training was calculated for each group (n=10) and statistical significance for the comparison is shown."}, "[9]": {"details": "control mice (n=5), amylin 20 mg/kg intraperitoneal"}, "[10]": {"details": "control mice (wild type), single amylin injection 20 mcg/kg i.p."}, "[11]": {"details": "Tg2576 mice (n=5), amylin 20 mg/kg intraperitoneal, 1 hr and 24 hrs"}, "[12]": {"details": "Tg2576 mice, single amylin injection 20 mcg/kg i.p., 1 hr, 24 hrs"}},
  "note": "Entries after “also recorded” stand apart in the source; their conditions may differ.",
  "data": [
    {"substance": "amylin (KCNTATCATQRLANFLVHSSNNFGAILSSTNVGSNTY; listed as Homo sapiens)", "values": [
      {"measurement": "memory functions / cognition", "setting": "mouse models", "result": "increased memory functions"},
      {"measurement": "passage through the brain blood barrier (BBB) into the brain", "setting": "[1]", "result": "freely passes through the brain blood barrier (BBB)"},
      {"measurement": "Aβ1-42 in serum", "setting": "serum Aβ1-40 and Aβ1-42 [2]; 5XFAD mice aged 3 months, i.p. injection of amylin", "result": "increased level"},
      {"measurement": "serum Aβ levels after peripheral amylin injection", "setting": "serum Aβ1-40 and Aβ1-42 [2]; different aged 5XFAD mice", "result": "increase of serum Aβ levels reflecting the amounts of Aβ in the brains"},
      {"measurement": "amount of Aβ monomers in the brain", "setting": "[3]", "result": "did not change"},
      {"measurement": "amount of Aβ oligomers in the brain", "setting": "[3]", "result": "significantly reduced"},
      {"measurement": "% alternation rate", "setting": "5XFAD mice [4]", "result": "significantly increased"},
      {"measurement": "Aβ1-40 in blood", "setting": "[5]", "result": "surge"},
      {"measurement": "serum Aβ40 compared to the pre-injection level", "setting": "serum Aβ1-40 and Aβ1-42 [6]; [9]", "result": "did not have these surges"},
      {"measurement": "serum Aβ42 compared to the pre-injection level", "setting": "serum Aβ1-40 and Aβ1-42 [6]; [9]", "result": "did not have these surges"},
      {"measurement": "serum Aβ40 compared to the pre-injection level", "setting": "serum Aβ1-40 and Aβ1-42 [6]; [10]", "result": "none of the control mice (wild type), had surges"},
      {"measurement": "serum Aβ42 compared to the pre-injection level", "setting": "serum Aβ1-40 and Aβ1-42 [6]; [10]", "result": "none of the control mice (wild type), had surges"},
      {"measurement": "serum Aβ40 compared to the pre-injection level", "setting": "serum Aβ1-40 and Aβ1-42 [7]; [11]", "result": "increase"},
      {"measurement": "serum Aβ42 compared to the pre-injection level", "setting": "serum Aβ1-40 and Aβ1-42 [7]; [11]", "result": "increase"},
      {"measurement": "serum Aβ40 compared to the pre-injection level", "setting": "serum Aβ1-40 and Aβ1-42 [7]; [12]", "result": "surges"},
      {"measurement": "serum Aβ42 compared to the pre-injection level", "setting": "serum Aβ1-40 and Aβ1-42 [7]; [12]", "result": "surges"},
      {"measurement": "Y-water maze, average latency of recognizing the object after the training", "setting": "5XFAD mice [8]; 5XFAD mice, i.p. amylin or saline for 8 weeks, n=10", "result": "improves; also recorded: improved memory impairment"},
      {"measurement": "time for acquisition (escaping onto the platform)", "setting": "5XFAD mice [8]; APP transgenic mice, long-term amylin treatment vs placebo", "result": "significantly reduced"},
      {"measurement": "memory retention: time to find the platform", "setting": "5XFAD mice [8]; APP transgenic mice, long-term amylin treatment vs placebo, at 30 minutes and at 3 days, p<0.02", "result": "shortening the time to find the platform"}
    ]}
  ]
}
